Experiments:
Format in all cases: in vivo
corn [1] = assay: Test Example 5: effect on crop by foliage application, plastic box (symbol c); details: 320 g/ha, 3 weeks after application
Outline: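 A greenhouse held between 25° C. and 30° C. was used to grow plants sown spot-wise, beneath ~1.5 cm of soil, in boxes of sterilized diluvial soil.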

corn [2] = assay: Test Example 4: effect on crop by soil treatment (symbol c); details: for c: corn, effect grade on crop: 320 g/ha
Outline: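 Grown at 25° C. to 30° C. in a greenhouse, the crops came from seed sown spot-wise in sterilized diluvial soil under roughly 1.5 cm of covering soil.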

Alopecurus myosuroides [3] = assay: Test Example 5: herbicidal effect by foliage application, plastic box (symbol J); details: 320 g/ha, 3 weeks after application
Outline: (§1)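 Effect is rated 3 weeks after a foliar spray of water-diluted emulsion concentrate at a predetermined herbicide amount. Plants had grown 14 days in a 25° C. to 30° C. greenhouse from seed in sterilized diluvial soil.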

Apera spica-venti = assay: Test Example 4: herbicidal effect by soil treatment (symbol L); details: for L: Apera spica-venti, herbicidal effect grade: 320 g/ha
Outline: (§2)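 Seeds were sown in sterilized diluvial soil, covered with about 1.5 cm of soil, and the soil surface was sprayed with a water-diluted emulsion of the compound at a predetermined rate. Plants grew in a greenhouse at 25° C. to 30° C.; effects were scored visually 3 weeks after application.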

Digitaria ciliaris = assay: Test Example 5: herbicidal effect by foliage application, plastic box (symbol F); details: 320 g/ha, 3 weeks after application
Outline: as §1

Alopecurus myosuroides [4] = assay: Test Example 4: herbicidal effect by soil treatment (symbol J); details: for J: Alopecurus myosuroides, herbicidal effect grade: 320 g/ha
Outline: as §2

[5] = test system: Echinochloa oryzacola Vasing.; assay: Test Example 2: herbicidal activity, application during weed generation in submerged conditions (symbol A); details: Table 23; application herbicide amount 320 g/ha; grade 0-5 by criteria of Test Example 1
Outline: (§3)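 Each pot contained alluvial soil under 4 cm of water with seeds of all three weeds sown together. Following growth at 25° C. to 30° C. to the one- to two-leaf stage, the floodwater received diluted emulsion at a predetermined amount; visual assessment followed at 3 weeks.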

Avena fatua = assay: Test Example 4: herbicidal effect by soil treatment (symbol I); details: for I: Avena fatua, herbicidal effect grade: 320 g/ha
Outline: as §2

Abutilon theophrasti = assay: Test Example 4: herbicidal effect by soil treatment (symbol M); details: for M: Abutilon theophrasti, herbicidal effect grade: 320 g/ha
Outline: as §2

Scirpus juncoides = assay: Test Example 2: herbicidal activity, application during weed generation in submerged conditions (symbol B); details: Table 23; application herbicide amount 320 g/ha; grade 0-5 by criteria of Test Example 1
Outline: as §3

Veronica persica = assay: Test Example 5: herbicidal effect by foliage application, plastic box (symbol R); details: 320 g/ha, 3 weeks after application
Outline: as §1

transplanted rice plant = assay: Test Example 1: effect on crop, application before weed generation in submerged conditions (symbol a); details: application herbicide amount 320 g/ha
Outline: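 Alluvial soil pots flooded to 4 cm water, sown with Echinochloa oryzacola, Scirpus juncoides and Monochoria vaginalis, then transplanted with 2.5 leaf stage rice seedlings; pre-emergence application. Greenhouse 25° C. to 30° C.; scored 0–5 by herbicidal ratio 3 weeks after application.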

[6] = test system: Echinochloa crus-galli var. crus-galli; assay: Test Example 3: herbicidal effect by foliage application, Wagner pot (symbol H); details: application herbicide amount 320 g/ha
Outline: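 Seeds sown in alluvial soil kept under 0.1–0.5 cm water, greenhouse 25–30 °C; 14 d growth. Leaves treated by small sprayer with water-diluted emulsion at a predetermined rate. Effect graded by set scale, 3 weeks.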

Amaranthus retroflexus = assay: Test Example 5: herbicidal effect by foliage application, plastic box (symbol N); details: 320 g/ha, 3 weeks after application
Outline: as §1

[7] = application herbicide amount 320 g/ha

## CON=C(C)CC1CC(OC(=O)CN(C)C(=O)c2ccccc2)=C(c2c(C)cc(C)cc2C)C1=O (stereo not shown) [1-139]
Corn [1]
  c: corn, effect on crop (criteria 0-5): 5 (Herbicidal ratio of 90% or more (almost completely withered))
Corn [2]
  c: corn, effect grade on crop: 5 (Herbicidal ratio of 90% or more (almost completely withered))
Alopecurus myosuroides [3]
  J: Alopecurus myosuroides, herbicidal effect (criteria 0-5): 5 (Herbicidal ratio of 90% or more (almost completely withered))
Apera spica-venti
  L: Apera spica-venti, herbicidal effect grade: 5 (Herbicidal ratio of 90% or more (almost completely withered))
Digitaria ciliaris
  F: Digitaria ciliaris, herbicidal effect (criteria 0-5): 5 (Herbicidal ratio of 90% or more (almost completely withered))
Alopecurus myosuroides [4]
  J: Alopecurus myosuroides, herbicidal effect grade: 5 (Herbicidal ratio of 90% or more (almost completely withered))
[5]
  Herbicidal effect grade, A: Echinochloa oryzacola Vasing.: 5 (Herbicidal ratio of 90% or more (almost completely withered))
Avena fatua
  I: Avena fatua, herbicidal effect grade: 4 (Herbicidal ratio of 70% or higher and lower than 90%)
Abutilon theophrasti
  M: Abutilon theophrasti, herbicidal effect grade: 4 (Herbicidal ratio of 70% or higher and lower than 90%)
Scirpus juncoides
  Herbicidal effect grade, B: Scirpus juncoides: 4 (Herbicidal ratio of 70% or higher and lower than 90%)
Veronica persica
  R: Veronica persica, herbicidal effect (criteria 0-5): 2 (Herbicidal ratio of 20% or higher and lower than 40%)
Transplanted rice plant
  Effect grade on crop, a: transplanted rice plant: 5 (Herbicidal ratio of 90% or more (almost completely withered))
[6]
  herbicidal effect on H (Echinochloa crus-galli var. crus-galli), grade 0-5: 5 (Herbicidal ratio of 90% or more (almost completely withered))
Amaranthus retroflexus
  N: Amaranthus retroflexus, herbicidal effect (criteria 0-5): 0 (Herbicidal ratio of 5% or lower (almost no effect))

## CC(CC1CC(O)=C(c2c(C)cc(C)cc2C)C1=O)=NOCC1OCCO1 (stereo not shown) [1-111]
Corn [1]
  c: corn, effect on crop (criteria 0-5): 5 (Herbicidal ratio of 90% or more (almost completely withered))
Corn [2]
  c: corn, effect grade on crop: 1 (Herbicidal ratio of 5% or higher and lower than 20%)
Alopecurus myosuroides [3]
  J: Alopecurus myosuroides, herbicidal effect (criteria 0-5): 5 (Herbicidal ratio of 90% or more (almost completely withered))
Apera spica-venti
  L: Apera spica-venti, herbicidal effect grade: 5 (Herbicidal ratio of 90% or more (almost completely withered))
Digitaria ciliaris
  F: Digitaria ciliaris, herbicidal effect (criteria 0-5): 5 (Herbicidal ratio of 90% or more (almost completely withered))
Alopecurus myosuroides [4]
  J: Alopecurus myosuroides, herbicidal effect grade: 5 (Herbicidal ratio of 90% or more (almost completely withered))
[5]
  Herbicidal effect grade, A: Echinochloa oryzacola Vasing.: 5 (Herbicidal ratio of 90% or more (almost completely withered))
Avena fatua
  I: Avena fatua, herbicidal effect grade: 3 (Herbicidal ratio of 40% or higher and lower than 70%)
Abutilon theophrasti
  M: Abutilon theophrasti, herbicidal effect grade: 4 (Herbicidal ratio of 70% or higher and lower than 90%)
Scirpus juncoides
  Herbicidal effect grade, B: Scirpus juncoides: 1 (Herbicidal ratio of 5% or higher and lower than 20%)
Veronica persica
  R: Veronica persica, herbicidal effect (criteria 0-5): 1 (Herbicidal ratio of 5% or higher and lower than 20%)
Transplanted rice plant
  Effect grade on crop, a: transplanted rice plant: 5 (Herbicidal ratio of 90% or more (almost completely withered))
[6]
  herbicidal effect on H (Echinochloa crus-galli var. crus-galli), grade 0-5: 5 (Herbicidal ratio of 90% or more (almost completely withered))
Amaranthus retroflexus
  N: Amaranthus retroflexus, herbicidal effect (criteria 0-5): 0 (Herbicidal ratio of 5% or lower (almost no effect))

## C=C(C)CN(CC)C(=O)OC1=C(c2c(C)cc(C)cc2C)C(=O)C(CC(C)=NOC)C1 (stereo not shown) [1-130]
Corn [1]
  c: corn, effect on crop (criteria 0-5): 1 (Herbicidal ratio of 5% or higher and lower than 20%)
Corn [2]
  c: corn, effect grade on crop: 0 (Herbicidal ratio of 5% or lower (almost no effect))
Alopecurus myosuroides [3]
  J: Alopecurus myosuroides, herbicidal effect (criteria 0-5): 5 (Herbicidal ratio of 90% or more (almost completely withered))
Apera spica-venti
  L: Apera spica-venti, herbicidal effect grade: 3 (Herbicidal ratio of 40% or higher and lower than 70%)
Digitaria ciliaris
  F: Digitaria ciliaris, herbicidal effect (criteria 0-5): 4 (Herbicidal ratio of 70% or higher and lower than 90%)
Alopecurus myosuroides [4]
  J: Alopecurus myosuroides, herbicidal effect grade: 3 (Herbicidal ratio of 40% or higher and lower than 70%)
[5]
  Herbicidal effect grade, A: Echinochloa oryzacola Vasing.: 1 (Herbicidal ratio of 5% or higher and lower than 20%)
Avena fatua
  I: Avena fatua, herbicidal effect grade: 0 (Herbicidal ratio of 5% or lower (almost no effect))
Abutilon theophrasti
  M: Abutilon theophrasti, herbicidal effect grade: 0 (Herbicidal ratio of 5% or lower (almost no effect))
Scirpus juncoides
  Herbicidal effect grade, B: Scirpus juncoides: 0 (Herbicidal ratio of 5% or lower (almost no effect))
Veronica persica
  R: Veronica persica, herbicidal effect (criteria 0-5): 0 (Herbicidal ratio of 5% or lower (almost no effect))
Transplanted rice plant
  Effect grade on crop, a: transplanted rice plant: 3 (Herbicidal ratio of 40% or higher and lower than 70%)
[6]
  herbicidal effect on H (Echinochloa crus-galli var. crus-galli), grade 0-5: 4 (Herbicidal ratio of 70% or higher and lower than 90%)
Amaranthus retroflexus
  N: Amaranthus retroflexus, herbicidal effect (criteria 0-5): 0 (Herbicidal ratio of 5% or lower (almost no effect))

## COCCON=C(CC1CC(O)=C(c2c(C)cc(-n3cc(Cl)cn3)cc2C)C1=O)C1CC1 (stereo not shown) [9-020]
Corn [1]
  c: corn, effect on crop grade: 5 (Herbicidal ratio of 90% or more (almost completely withered))
Corn [2]; [7]
  Effect on crop grade, c: corn: 0 (Herbicidal ratio of 5% or lower (almost no effect))
Alopecurus myosuroides [3]
  J: Alopecurus myosuroides, herbicidal effect grade: 5 (Herbicidal ratio of 90% or more (almost completely withered))
Apera spica-venti; [7]
  Herbicidal effect grade, L: Apera spica-venti: 4 (Herbicidal ratio of 70% or higher and lower than 90%)
Digitaria ciliaris
  F: Digitaria ciliaris, herbicidal effect grade: 5 (Herbicidal ratio of 90% or more (almost completely withered))
Alopecurus myosuroides [4]; [7]
  Herbicidal effect grade, J: Alopecurus myosuroides: 3 (Herbicidal ratio of 40% or higher and lower than 70%)
[5]
  Herbicidal effect grade, A: Echinochloa oryzacola Vasing.: 4 (Herbicidal ratio of 70% or higher and lower than 90%)
Avena fatua; [7]
  Herbicidal effect grade, I: Avena fatua: 0 (Herbicidal ratio of 5% or lower (almost no effect))
Abutilon theophrasti; [7]
  Herbicidal effect grade, M: Abutilon theophrasti: 3 (Herbicidal ratio of 40% or higher and lower than 70%)
Scirpus juncoides
  Herbicidal effect grade, B: Scirpus juncoides: 4 (Herbicidal ratio of 70% or higher and lower than 90%)
Veronica persica
  R: Veronica persica, herbicidal effect grade: 3 (Herbicidal ratio of 40% or higher and lower than 70%)
Transplanted rice plant
  a (transplanted rice plant) effect on crop grade: 5 (Herbicidal ratio of 90% or more (almost completely withered))
[6]; Table 24
  H (Echinochloa crus-galli var. crus-galli) herbicidal effect grade: 5 (Herbicidal ratio of 90% or more (almost completely withered))
Amaranthus retroflexus
  N: Amaranthus retroflexus, herbicidal effect grade: 5 (Herbicidal ratio of 90% or more (almost completely withered))

## CC(CC1CC(O)=C(c2c(C)cc(C)cc2C)C1=O)=NOCC1CC1(F)F (stereo not shown) [1-109]
Corn [1]
  c: corn, effect on crop (criteria 0-5): 5 (Herbicidal ratio of 90% or more (almost completely withered))
Corn [2]
  c: corn, effect grade on crop: 1 (Herbicidal ratio of 5% or higher and lower than 20%)
Alopecurus myosuroides [3]
  J: Alopecurus myosuroides, herbicidal effect (criteria 0-5): 5 (Herbicidal ratio of 90% or more (almost completely withered))
Apera spica-venti
  L: Apera spica-venti, herbicidal effect grade: 5 (Herbicidal ratio of 90% or more (almost completely withered))
Digitaria ciliaris
  F: Digitaria ciliaris, herbicidal effect (criteria 0-5): 5 (Herbicidal ratio of 90% or more (almost completely withered))
Alopecurus myosuroides [4]
  J: Alopecurus myosuroides, herbicidal effect grade: 5 (Herbicidal ratio of 90% or more (almost completely withered))
[5]
  Herbicidal effect grade, A: Echinochloa oryzacola Vasing.: 5 (Herbicidal ratio of 90% or more (almost completely withered))
Avena fatua
  I: Avena fatua, herbicidal effect grade: 2 (Herbicidal ratio of 20% or higher and lower than 40%)
Abutilon theophrasti
  M: Abutilon theophrasti, herbicidal effect grade: 4 (Herbicidal ratio of 70% or higher and lower than 90%)
Scirpus juncoides
  Herbicidal effect grade, B: Scirpus juncoides: 5 (Herbicidal ratio of 90% or more (almost completely withered))
Veronica persica
  R: Veronica persica, herbicidal effect (criteria 0-5): 3 (Herbicidal ratio of 40% or higher and lower than 70%)
Transplanted rice plant
  Effect grade on crop, a: transplanted rice plant: 5 (Herbicidal ratio of 90% or more (almost completely withered))
[6]
  herbicidal effect on H (Echinochloa crus-galli var. crus-galli), grade 0-5: 5 (Herbicidal ratio of 90% or more (almost completely withered))
Amaranthus retroflexus
  N: Amaranthus retroflexus, herbicidal effect (criteria 0-5): 0 (Herbicidal ratio of 5% or lower (almost no effect))

From patent US11000033B2, “Ketone or oxime compound, and herbicide” (NISSAN CHEMICAL CORPORATION, priority 2014, dated 2021)
